Measurements: US12427192B2, “Water soluble adjuvant and composition containing same” (Sumitomo Pharma Co., Ltd., priority 2019, dated 2025)

Tests used:
[1] = system: HLA-A*02:01 transgenic mouse; experiment: Test 7: in vivo adjuvant activity, vaccine d (Peptide SEQ ID No. 5), IFNγ ELISPOT; conditions: added to vaccine d; 330 ng per body, once; FIG. 4
Procedure: (§1) Evaluation of In Vivo Adjuvant Activity in HLA-A*02:01 Transgenic Mouse
The in vivo adjuvant activity of the compound of Example 1 was evaluated in the following procedure. To a vaccine prepared by mixing Peptide SEQ ID No. 5 prepared in Reference example 5 with Montanide ISA 51 VG (hereinafter, referred to as “vaccine d”) was added the compound prepared in Example 1 to prepare a vaccine. The vaccine was administered to a HLA-A*02:01 transgenic mouse, and the adjuvant activity of the vaccine was evaluated by the method of testing antigen-specific CTL induction. The VLQELNVTV in Peptide SEQ ID No. 5 corresponds to an antigen peptide derived from an HLA-A*02:01-restricted Proteinase-3 protein.
The character for inducing CTLs specific to the antigen peptide (SEQ ID No. 5) by vaccine d was evaluated by measuring whether IFNγ can be produced upon stimulation of splenocytes from the mouse with the peptide. In addition, the character for exerting in vivo adjuvant activity by the compound in Example 1 was evaluated by comparing the number of CTLs induced by vaccine d and the number of CTLs induced by the vaccine prepared by adding the compound prepared in Example 1 to vaccine d, and checking presence or absence of the increase on the number.
Specifically, Peptide of SEQ ID No. 5 was dissolved in DMSO, and then diluted with water for injection to concentrations of 2 mg/mL. […]

[2] = system: HLA-A*02:01 transgenic mouse; experiment: Test 18: in vivo adjuvant activity, cocktail vaccine m (liposome formulation 3), IFNγ ELISPOT; conditions: added to cocktail vaccine m (liposome formulation 3); 0.4 nmol per body, twice; FIG. 22
Procedure: as §1
The in vivo adjuvant activity of the compound of Example 1 was evaluated in the following procedure. To a vaccine (liposome formulation 3) comprising Compound of formula 4 prepared in Reference example 8 and Peptide SEQ ID No. 3 prepared in Reference example 3 (hereinafter, referred to as “cocktail vaccine m”) was added the compound prepared in Example 1 to prepare a vaccine. The vaccine was administered to a HLA-A*02:01 transgenic mouse, and the adjuvant activity of the vaccine was evaluated by the method of testing antigen-specific CTL induction.
For example, the above liposome formulation 3 was prepared as follows. 36.7 mg of 1,2-dipalmitoyl-sn-glycero-3-phosphocholine, 7.58 mg of 1,2-dipalmitoyl-sn-glycero-3-phospho-L-serine sodium salt, and 15.47 mg of cholesterol were dissolved in t-butyl alcohol/water mixture, and the mixture was lyophilized. […]
Cocktail vaccine m was injected to mice intradermally at the tail base area in an amount for administering 500 μg of Compound of formula 4 per body and 375 μg of Peptide SEQ ID No. 3 per body. […] Then, after removal of the supernatant from the wells, stained spots on the ELISPOT plate were counted.

CCCCCNc1nc(N)nc(C)c1Cc1ccc(CN(C)CCOCCOCCOCCOCCO)cc1OC [Example 1, 1-(4-{[2-amino-4-methyl-6-(pentylamino)pyrimidin-5-yl]methyl}-3-methoxyphenyl)-2-methyl-5,8,11,14-tetraoxa-2-azahexadecan-16-ol·trifluoroacetate]
CTL counts responsive to Peptide of SEQ ID No. 5 compared with adding no compound [1]: more | CTL counts responsive to Peptide SEQ ID No. 1 compared with adding no compound [2]: more
